From ChEMBL document CHEMBL3227983, “N-Acetimidoyl- and N-formimidoylthienamycin derivatives: antipseudomonal beta-lactam antibiotics” (J Med Chem, 1979)

Assays:
Enterobacter cloacae [1] = experiment: Antibacterial activity against penicillin-sensitive Enterobacter cloacae MB2647 at 25 ug/disk; assay type: functional; settings: read-out: DIZ
Pseudomonas aeruginosa [2] = experiment: Antibacterial activity against penicillin-resistant Pseudomonas aeruginosa MB3350 at 25 ug/disk; assay type: functional; settings: read-out: DIZ
Escherichia coli [3] = experiment: Antibacterial activity against penicillin-resistant Escherichia coli MB2964 at 25 ug/disk; assay type: functional; settings: read-out: DIZ
Escherichia coli [4] = experiment: Antibacterial activity against penicillin-sensitive Escherichia coli MB2482 at 25 ug/disk; assay type: functional; settings: read-out: DIZ
Staphylococcus aureus [5] = experiment: Antibacterial activity against penicillin-resistant Staphylococcus aureus MB2314 at 25 ug/disk; assay type: functional; settings: read-out: DIZ
[6] = Stability of the compound in amorphous form in deionized water assessed as time at which 90% of initial UV-absorbance remains at 60 mg/ml at 23 degC; assay type: physicochemical; settings: buffer
Staphylococcus aureus [7] = experiment: Antibacterial activity against penicillin-sensitive Staphylococcus aureus MB2985 at 25 ug/disk; assay type: functional; settings: read-out: DIZ
Enterobacter cloacae [8] = experiment: Antibacterial activity against penicillin-resistant Enterobacter cloacae MB2646 at 25 ug/disk; assay type: functional; settings: read-out: DIZ
[9] = Stability of the compound in amorphous form in 1 M PO4 assessed as time at which 90% of initial UV-absorbance remains at 60 mg/ml at pH 7 at 23 degC; assay type: physicochemical; settings: buffer
Pseudomonas aeruginosa [10] = experiment: Antibacterial activity against penicillin-sensitive Pseudomonas aeruginosa MB2835 at 25 ug/disk; assay type: functional; settings: read-out: DIZ
[11] = Stability of the compound in amorphous form assessed as compound remaining after 1 month at 60 mg/ml at 23 degC in presence of 0.1 equiv of NaHCO3; assay type: physicochemical; settings: read-out: Stability
[12] = Drug degradation in crystalline form at 10 mg/ml; assay type: physicochemical; settings: read-out: Drug degradation
[13] = Stability of the compound in amorphous form assessed as compound remaining after 5 months at 60 mg/ml at 23 degC in presence of 0.1 equiv of NaHCO3; assay type: physicochemical; settings: read-out: Stability
[14] = Stability of the compound in crystalline form assessed as compound remaining after 6 months at 10 mg/ml at 23 degC in presence of 0.1 equiv of NaHCO3; assay type: physicochemical; settings: read-out: Stability
[15] = Stability of the compound in crystalline form in deionized water assessed as time at which 90% of initial UV-absorbance remains at 10 mg/ml at 23 degC; assay type: physicochemical; settings: buffer
[16] = Stability of the compound in amorphous form assessed as compound remaining after 6 months at 60 mg/ml at 23 degC in presence of 0.1 equiv of NaHCO3; assay type: physicochemical; settings: read-out: Stability

SMILES: C[C@@H](O)[C@H]1C(=O)N2C(C(=O)O)=C(SCCN)C[C@H]12 [THIENAMYCIN]
- zone of inhibition at 25 µg/disc (Enterobacter cloacae [1]): 25.5 mm
- zone of inhibition at 25 µg/disc (Pseudomonas aeruginosa [2]): 26 mm
- zone of inhibition at 25 µg/disc (Escherichia coli [3]): 29 mm
- zone of inhibition at 25 µg/disc (Escherichia coli [4]): 28.5 mm
- zone of inhibition at 25 µg/disc (Staphylococcus aureus [5]): 41 mm
- Time [6]: 0.5 h
- zone of inhibition at 25 µg/disc (Staphylococcus aureus [7]): 40 mm
- zone of inhibition at 25 µg/disc (Enterobacter cloacae [8]): 27 mm
- Time [9]: 0.5 h
- zone of inhibition at 25 µg/disc (Pseudomonas aeruginosa [10]): 26 mm
- remaining at 730.5 h, 60 mg/ml [11]: 80%

SMILES: CC(=N)NCCSC1=C(C(=O)O)N2C(=O)[C@H]([C@@H](C)O)[C@H]2C1
- zone of inhibition at 25 µg/disc (Enterobacter cloacae [1]): 27 mm
- zone of inhibition at 25 µg/disc (Pseudomonas aeruginosa [2]): 28 mm
- zone of inhibition at 25 µg/disc (Escherichia coli [3]): 29.5 mm
- degraded at 10 mg/ml [12]: < 1%
- zone of inhibition at 25 µg/disc (Escherichia coli [4]): 28 mm
- zone of inhibition at 25 µg/disc (Staphylococcus aureus [5]): 40 mm
- Time [6]: 5 h
- remaining at 3652.5 h, 60 mg/ml [13]: 100%
- zone of inhibition at 25 µg/disc (Staphylococcus aureus [7]): 38.5 mm
- zone of inhibition at 25 µg/disc (Enterobacter cloacae [8]): 27 mm
- Time [9]: 0.5 h
- zone of inhibition at 25 µg/disc (Pseudomonas aeruginosa [10]): 28 mm

SMILES: C[C@@H](O)[C@H]1C(=O)N2C(C(=O)O)=C(SCCN=CN)C[C@H]12 [IMIPENEM ANHYDROUS]
- zone of inhibition at 25 µg/disc (Enterobacter cloacae [1]): 27 mm
- zone of inhibition at 25 µg/disc (Pseudomonas aeruginosa [2]): 29 mm
- remaining at 4383 h, 10 mg/ml [14]: 100%
- zone of inhibition at 25 µg/disc (Escherichia coli [3]): 29.5 mm
- Time [15]: 17 h
- zone of inhibition at 25 µg/disc (Escherichia coli [4]): 28.5 mm
- zone of inhibition at 25 µg/disc (Staphylococcus aureus [5]): 40.5 mm
- remaining at 4383 h, 60 mg/ml [16]: 80%
- Time [6]: 2.5 h
- zone of inhibition at 25 µg/disc (Staphylococcus aureus [7]): 40 mm
- zone of inhibition at 25 µg/disc (Enterobacter cloacae [8]): 27.5 mm
- Time [9]: 0.5 h
- zone of inhibition at 25 µg/disc (Pseudomonas aeruginosa [10]): 29 mm
